Experimental data reported in US8110585B2, “Bicyclic compound and pharmaceutical use thereof” (Takeda Pharmaceutical Company Limited, priority 2007, dated 2012).
pIC50: −log10 of the molar value.

What was measured:
[1] = target: T1, human melatonin 1 receptors (human MT1 receptors) (Homo sapiens, UniProt P48039); assay: Melatonin receptor binding inhibitory test, 2-[125I] Iodomelatonin, MT1; details: membrane fraction of CHO-hMelR7 cells, 25° C. for 2.5 hr, read-out: binding inhibitory activity as IC50 value for MT1
T1 construct: expressed in transfected cells; membrane fraction
T1 sequence (P48039 whole entry): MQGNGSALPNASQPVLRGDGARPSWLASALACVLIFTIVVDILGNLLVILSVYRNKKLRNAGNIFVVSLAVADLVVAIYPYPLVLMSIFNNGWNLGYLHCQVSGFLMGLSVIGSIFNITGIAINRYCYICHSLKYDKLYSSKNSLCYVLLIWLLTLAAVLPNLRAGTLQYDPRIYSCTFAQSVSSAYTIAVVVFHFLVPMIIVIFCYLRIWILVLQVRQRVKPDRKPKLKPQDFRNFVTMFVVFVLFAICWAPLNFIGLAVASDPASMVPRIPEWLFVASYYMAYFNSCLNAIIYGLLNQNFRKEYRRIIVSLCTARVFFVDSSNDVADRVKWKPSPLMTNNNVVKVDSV

[2] = target: T2, human melatonin 2 receptors (human MT2 receptors) (Homo sapiens, UniProt P49286); assay: Melatonin receptor binding inhibitory test, 2-[125I] Iodomelatonin, MT2; details: membrane fraction of CHO-hMT2 cells, 25° C. for 2.5 hr, read-out: binding inhibitory activity as IC50 value for MT2
T2 construct: expressed in transfected cells; membrane fraction
T2 sequence (P49286 1-362): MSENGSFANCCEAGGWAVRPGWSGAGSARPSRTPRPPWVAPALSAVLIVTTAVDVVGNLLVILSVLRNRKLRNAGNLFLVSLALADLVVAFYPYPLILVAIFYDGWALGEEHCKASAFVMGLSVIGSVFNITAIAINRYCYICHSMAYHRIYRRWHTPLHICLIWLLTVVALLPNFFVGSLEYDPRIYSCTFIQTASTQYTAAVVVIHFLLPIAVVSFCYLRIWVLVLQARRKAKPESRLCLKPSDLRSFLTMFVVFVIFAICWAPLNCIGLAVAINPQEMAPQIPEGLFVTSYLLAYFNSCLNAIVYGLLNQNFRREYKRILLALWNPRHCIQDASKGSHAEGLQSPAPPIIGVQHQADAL

Structure (SMILES)	pIC50 [1]	pIC50 [2]	melting point [°C]
CC(=O)NCC1CC1c1c(C#N)ccc2nn(C)cc12 (stereo not drawn) [Example 36, N-{[2-(5-cyano-2-methyl-2H-indazol-4-yl)cyclopropyl]methyl}acetamide]	≥ 7.00	≥ 7.00	189 to 192
CC(=O)NC[C@H]1C[C@@H]1c1cccn2nc(C)cc12 [Example 43, N-{[(1S,2S)-2-(2-methylpyrazolo[1,5-a]pyridin-4-yl)cyclopropyl]methyl}acetamide]	≥ 7.00	≥ 7.00	69 to 70
